Results on 19 molecules are retold here after US11590116B2 (THERAVANCE BIOPHARMA R&D IP, LLC, priority 2019, dated 2023).

The structures appear in SMILES notation.

For assay [1], the target named is T1, recombinant human ALK5 (TGF-βR1) protein (Homo sapiens, UniProt P36897).
T1 construct: purchased Life Technologies PR9075A
T1 sequence (P36897 34-503): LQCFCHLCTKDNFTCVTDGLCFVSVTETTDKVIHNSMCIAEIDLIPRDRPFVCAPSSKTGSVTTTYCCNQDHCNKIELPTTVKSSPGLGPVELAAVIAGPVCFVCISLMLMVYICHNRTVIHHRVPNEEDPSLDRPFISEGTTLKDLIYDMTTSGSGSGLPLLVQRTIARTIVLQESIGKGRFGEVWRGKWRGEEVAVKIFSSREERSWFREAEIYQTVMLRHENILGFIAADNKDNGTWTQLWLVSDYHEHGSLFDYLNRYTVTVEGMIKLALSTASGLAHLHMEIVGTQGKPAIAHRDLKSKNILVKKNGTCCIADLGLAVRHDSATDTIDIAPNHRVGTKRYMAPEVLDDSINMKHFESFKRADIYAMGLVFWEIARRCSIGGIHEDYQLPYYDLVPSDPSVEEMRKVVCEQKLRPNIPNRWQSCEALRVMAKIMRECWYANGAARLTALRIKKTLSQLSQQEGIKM
Put plainly: Biochemical ALK5 (TGF-βR1) assay to measure pKi (LANCE Ultra ULight kinase assay). As to conditions: apparent pKi from pIC50 by Cheng-Prusoff, read-out: ALK5 pKi (converted). As to the method: The assays were performed in a 384-well plate (24 columns×16 wells/rows). An Echo® 550 Liquid Handler (Labcyte) was used to prepare various intermediate concentrations of compounds of the present disclosure in 100% DMSO. From the intermediate concentrations, a range of concentrations (from 10 μM to 25 pM corresponding to volumes up to 105 nL) were prepared and ejected into a final assay plate to be used to create individual dose response curves for each of the subject compounds. To a separate column within the assay plate, 105 nL of DMSO in each well was used to establish a maximum assay signal.
With a multidrop dispenser, 8 μL of enzyme mixture (1.25× final) was added to each well. […] The plate was then sealed with an adhesive seal and allowed to equilibrate for 60 minutes at room temperature.
Next, 2 μL of 125 μM ATP (5× final, 125 μM ATP prepared in assay buffer with 2 mM DTT) was added to the incubated mixtures, covered with a MicroClime® Environmental Lid (Product No. LLS-0310, Labcyte) and immediately transferred to 37° C. The reactions were allowed to proceed at 37° C. for 60 minutes before terminating with the addition of 10 μL of detection antibody (LANCE® (lanthanide chelate excite) Ultra Europium-anti-phospo-DNA Topoisomerase 2-alpha (Thr1342)) in detection mixture (12 mM EDTA, 4 nM detection antibody prepared in detection buffer (50 mM Tris-HCl, 150 mM NaCl, 0.5% BSA (Fraction V), pH 7.0)) at room temperature. The plate was then read on a Perkin Elmer EnVision Plate Reader using europium specific reader settings with excitation and emission wavelengths set to 320 or 340 nm and 665 nm, respectively.
For dose-response analyses, percent inhibition versus compound concentrations were plotted, and pIC50 values were determined from a 4-parameter robust fit model with GraphPad Prism V5 Software (GraphPad Software, Inc., La Jolla, Calif.). This model obtains pIC50 values by fitting the sigmoidal dose-response (variable slope) equation to the data. Results were expressed as pIC50 (negative logarithm of IC50) and subsequently converted to pKi (negative logarithm of dissociate constant, K) using the Cheng-Prusoff equation. The higher the value of pKi (lower value of Ki), the greater the inhibition of ALK5 activity.
Background: In TR-FRET formats the signal depends on donor and acceptor labels being close together.

Assay [2] concerns TGF-β-stimulated SMAD3 phosphorylation in BEAS-2B cells. Put plainly: Cellular ALK5 potency assay, inhibition of TGF-β stimulated pSMAD3 formation in BEAS-2B cells. It is filed as cell-based. The settings on record: Homo sapiens; inhibition of TGF-β stimulated pSMAD3 formation, BEAS-2B cells; read-out: BEAS2B pIC50 (converted). How it is done:
The potency of compounds of the present disclosure for inhibition of TGF-β-stimulated SMAD3 phosphorylation was measured in BEAS-2B cells, a human lung epithelial cell line. TGF-β signals through activin receptor-like kinase 5 (ALK5) immediately prior to SMAD3 phosphorylation.
BEAS-2B cells were grown using 50% DMEM (Life Technologies) and 50% F-12 (Life Technologies) media, supplemented with 10% Fetal Bovine Serum (ATCC), 25 mM HEPES (Life Technologies), and 1× Pen-Strep (Life Technologies). Cells were cultured in a humidified incubator set at 37° C., 5% CO2, and trypsonized using 0.25% Trypsin with 0.5% polyvinylpyrrolidone (PVP).
For the assay, BEAS-2B cells were seeded at 7,500 cells/well (25 μL/well) in a 384-well plate and cultured overnight. Before dosing, growth media was aspirated and the wells were rinsed with HBSS Buffer (HBSS with Calcium and Magnesium, Life Technologies) supplemented with 25 mM HEPES (Life Technologies) and 1% Bovine Serum Albumin (Roche). Compounds were serially diluted in DMSO, then further diluted with supplemented HBSS Buffer (50 μL/well) to create a compound plate 3× of the final assay concentration, at 0.3% DMSO. The diluted compounds were then added to the cells (8 μL/well) and incubated at 37° C., 5% CO2 for 1 hour. After the compound incubation, TGF-β (R&D Systems) reconstituted in supplemented HBSS Buffer was added to the cells ([…], final concentration 10 ng/mL) and incubated for a further 30 minutes, after which the cells were immediately lysed with AlphaLISA lysis buffer (PerkinElmer). AlphaLISA Acceptor and Detector beads (PerkinElmer) were added 2 hours apart, then incubated overnight to be read the next day. The potency of the compound was determined through analysis of dose-dependent quantified changes in pSMAD3 signal from baseline (non-compound treated TGF-β stimulated cells). Data are expressed as pIC50 (negative decadic logarithm IC50) values.

With `Cc1cccc(-c2[nH]cnc2-c2ccc3ncc(C4=CCC(NC(=O)CSC5CCOC5=O)CC4)cc3c2)n1` (stereo not drawn) [Compound 98, N-(4-(6-(5-(6-methylpyridin-2-yl)-1H-imidazol-4-yl)quinolin-3-yl)cyclohex-3-en-1-yl)-2-((2-oxotetrahydrofuran-3-yl)thio)acetamide], in assay [1], the Ki is 0.0398 to 0.316 nM. Besides, the IC50 in assay [2] is 25.1 to 158 nM. Taken in the same sequence, the figures for `CNC1(Cn2cc(-c3cnc4ccc(-c5c[nH]nc5-c5ccc(F)c(C)n5)nc4c3)cn2)CC1` [Compound 97, 1-[[4-[6-[3-(5-fluoro-6-methyl-2-pyridyl)-1H-pyrazol-4-yl]-1,5-naphthyridin-3-yl]pyrazol-1-yl]methyl]-N-methyl-cyclopropanamine] were < 0.0316 nM and < 20 nM. As for `Cc1cccc(-c2n[nH]cc2-c2ccc3nccc(N4CC(N5CCOCC5)C4)c3n2)n1` [Compound 846, 4-[1-[6-[3-(6-methyl-2-pyridyl)-1H-pyrazol-4-yl]-1,5-naphthyridin-4-yl]azetidin-3-yl]morpholine], in assay [1], the Ki is 0.398 to 3.16 nM. The IC50 in assay [2] was 200 to 1260 nM. The matching figures for `Cc1cccc(-c2n[nH]cc2-c2ccc3ncc(C4=CCNC4)cc3n2)n1` [Compound 588, 7-(2,5-dihydro-1H-pyrrol-3-yl)-2-[3-(6-methyl-2-pyridyl)-1H-pyrazol-4-yl]-1,5-naphthyridine]: 0.0398 to 0.316 nM and < 20 nM. For `Cc1cccc(-c2[nH]cnc2-c2ccc3ncc(-c4csc(C(=O)OC[C@H]5CC[C@H](N)CC5)c4)cc3c2)n1` [Compound 1171, (4-aminocyclohexyl)methyl 4-[6-[5-(6-methyl-2-pyridyl)-1H-imidazol-4-yl]-3-quinolyl]thiophene-2-carboxylate], in assay [1], the Ki is < 0.0316 nM. In addition, the IC50 in assay [2] was 25.1 to 158 nM.

For the molecule `Cc1cccc(-c2[nH]cnc2-c2ccc3ncc(-c4ncc(C(=O)O)cn4)cc3c2)n1` [Compound 1140, 2-[6-[5-(6-methyl-2-pyridyl)-1H-imidazol-4-yl]-3-quinolyl]pyrimidine-5-carboxylic acid], the Ki in assay [1] is 0.0398 to 0.316 nM. For the same molecule, the IC50 in assay [2] was 200 to 1260 nM. Taken in the same sequence, the figures for `Cc1cccc(-c2n[nH]cc2-c2ccc3nccc(C4COC5(CCNC5)CN4)c3n2)n1` (stereo not drawn) [Compound 862, 8-[6-[3-(6-methyl-2-pyridyl)-1H-pyrazol-4-yl]-1,5-naphthyridin-4-yl]-6-oxa-2,9-diazaspiro[4.5]decane] were 3.98 to 31.6 nM and 200 to 1260 nM.

For `Cc1cccc(-c2n[nH]cc2-c2ccc3nccc(CN4CC(N5CCOCC5)C4)c3n2)n1` [Compound 850, 4-[1-[[6-[3-(6-methyl-2-pyridyl)-1H-pyrazol-4-yl]-1,5-naphthyridin-4-yl]methyl]azetidin-3-yl]morpholine], in assay [1], the Ki is 0.398 to 3.16 nM. Besides, in assay [2], the IC50 was 200 to 1260 nM. Turning to `Cc1cccc(-c2n[nH]cc2-c2ccc3nccc(C(=O)NCN4CCOCC4)c3n2)n1` [Compound 807, 6-[3-(6-methyl-2-pyridyl)-1H-pyrazol-4-yl]-N-(morpholinomethyl)-1,5-naphthyridine-4-carboxamide], the Ki in assay [1] was 0.398 to 3.16 nM.

Consider `Cc1cccc(-c2[nH]cnc2-c2ccc3ncc(-c4csc(C(=O)OC[C@H]5CC[C@H](N)CC5)c4)cc3c2)n1` [Compound 1245, (4-aminocyclohexyl)methyl 4-[6-[5-(6-methyl-2-pyridyl)-1H-imidazol-4-yl]-3-quinolyl]thiophene-2-carboxylate], for which the Ki in assay [1] was 0.0398 to 0.316 nM. The same measure, in the same setting: the value for `CCOC(=O)[C@H](C)NP(=O)(OCc1cnc2ccc(-c3cn[nH]c3-c3cccc(C)n3)nc2c1)Oc1ccccc1` (stereo partly drawn) [Compound 464, ethyl (2S)-2-[[[6-[5-(6-methyl-2-pyridyl)-1H-pyrazol-4-yl]-1,5-naphthyridin-3-yl]methoxy-phenoxy-phosphoryl]amino]propanoate] was 0.0398 to 0.316 nM; that for `Cc1cccc(-c2[nH]cnc2-c2ccc3ncc(-c4ncc(C(=O)OC5CCNCC5)s4)cc3c2)n1` [Compound 1022, piperidin-4-yl 2-(6-(5-(6-methylpyridin-2-yl)-1H-imidazol-4-yl)quinolin-3-yl)thiazole-5-carboxylate] was 0.0398 to 0.316 nM. With `Cc1nc(-c2n[nH]cc2-c2ccc3ncc(-c4cnn(C5CCC(N)CC5)c4)cc3n2)ccc1F` (stereo not drawn) [Compound 459, 4-[4-[6-[3-(5-fluoro-6-methyl-2-pyridyl)-1H-pyrazol-4-yl]-1,5-naphthyridin-3-yl]pyrazol-1-yl]cyclohexanamine], the IC50 in assay [2] was 25.1 to 158 nM.

`Cc1cccc(-c2[nH]ncc2-c2ccc3nccc(C(=O)O[C@H]4CC[C@](C)(N)CC4)c3c2)n1` [Compound 1135, (4-amino-4-methyl-cyclohexyl) 6-[5-(6-methyl-2-pyridyl)-1H-pyrazol-4-yl]quinoline-4-carboxylate]: in assay [1], the Ki was 3.98 to 31.6 nM.

On to `CNCCn1cc(-c2cnc3ccc(-c4c[nH]nc4-c4ccc(F)c(C)n4)nc3c2C)cn1` [Compound 870, 2-[4-[6-[3-(5-fluoro-6-methyl-2-pyridyl)-1H-pyrazol-4-yl]-4-methyl-1,5-naphthyridin-3-yl]pyrazol-1-yl]-N-methyl-ethanamine], for which the IC50 in assay [2] was 25.1 to 158 nM. `Cc1cccc(-c2n[nH]cc2-c2ccc3nccc(C(=O)NCCCN4CCOCC4)c3n2)n1` [Compound 803, 6-[3-(6-methyl-2-pyridyl)-1H-pyrazol-4-yl]-N-(3-morpholinopropyl)-1,5-naphthyridine-4-carboxamide]: in assay [1], the Ki is 0.398 to 3.16 nM. Still for that read-out and setting: then `Cc1cccc(-c2[nH]cnc2-c2ccc3ncc(N4CCC(NCCSC(CCO)C(=O)O)C4)cc3c2)n1` (stereo not drawn) [Compound 720, 4-hydroxy-2-[2-[[1-[6-[5-(6-methyl-2-pyridyl)-1H-imidazol-4-yl]-3-quinolyl]pyrrolidin-3-yl]amino]ethylsulfanyl]butanoic acid], with 0.0398 to 0.316 nM.

Regarding `Cc1nc(-c2n[nH]cc2-c2ccc3ncc(-c4cnn(C5CC(N)C5)c4)cc3n2)ccc1F` (stereo not drawn) [Compound 647, 3-[4-[6-[3-(5-fluoro-6-methyl-2-pyridyl)-1H-pyrazol-4-yl]-1,5-naphthyridin-3-yl]pyrazol-1-yl]cyclobutanamine], in assay [2], the IC50 is 25.1 to 158 nM. For `Cc1cccc(-c2n[nH]cc2-c2ccc3nccc(C(=O)NCCN4CCN(C(C)C)CC4)c3n2)n1` [Compound 808, N-[2-(4-isopropylpiperazin-1-yl)ethyl]-6-[3-(6-methyl-2-pyridyl)-1H-pyrazol-4-yl]-1,5-naphthyridine-4-carboxamide], the Ki in assay [1] is 3.98 to 31.6 nM.
